In paper PMC9218960 (ACS infectious diseases, 2020):
Positions count from the first letter of the chain named.

Legend:
PfENT1 F36S/V129I = biological target: T1, PfENT1 F36S/V129I (Plasmodium falciparum, UniProt Q8IDM6, F36S/V129I); experiment: [3H]uridine uptake inhibition by purines in PfENT1-SNP-expressing yeast; format: cell-based
T1 sequence (Q8IDM6 1-422 F36S/V129I): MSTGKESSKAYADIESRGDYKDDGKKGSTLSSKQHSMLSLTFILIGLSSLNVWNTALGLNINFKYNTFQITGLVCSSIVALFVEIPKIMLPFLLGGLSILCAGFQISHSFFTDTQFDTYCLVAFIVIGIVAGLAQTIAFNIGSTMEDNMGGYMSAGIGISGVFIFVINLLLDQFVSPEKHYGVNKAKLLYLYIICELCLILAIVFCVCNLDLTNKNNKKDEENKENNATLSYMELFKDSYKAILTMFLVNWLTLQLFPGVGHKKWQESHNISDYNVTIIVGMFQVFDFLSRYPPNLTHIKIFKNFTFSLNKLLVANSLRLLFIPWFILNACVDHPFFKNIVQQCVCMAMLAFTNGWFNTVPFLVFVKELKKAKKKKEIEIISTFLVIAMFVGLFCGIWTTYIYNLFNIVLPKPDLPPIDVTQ

PfENT1 I418M = biological target: T2, PfENT1 I418M (Plasmodium falciparum, UniProt Q8IDM6, I418M); experiment: as above; format: cell-based
T2 sequence (Q8IDM6 1-422 I418M): T1 sequence (Q8IDM6 1-422 F36S/V129I) with S36F, I129V, I418M

SMILES | IC50 (PfENT1 F36S/V129I) [µM] | IC50 (PfENT1 I418M) [µM]
O=c1[nH]cnc2nc[nH]c12 [Hypoxanthine, hypoxanthine] | 107 ± 5 | 145 ± 7
Nc1ncnc2nc[nH]c12 [Adenine, adenine] | 333 ± 32 | 221 ± 36
OC[C@H]1O[C@@H](n2cnc3c(O)ncnc32)[C@H](O)[C@@H]1O [Inosine, inosine] | 14 ± 2 | 12 ± 2
